Measurements taken from publication PMC13252604, “First Generation Proteolysis Targeting Chimeras (PROTACs) for the Treatment of Progeria” (Advanced Science, 2026).

Target: T1, progerin (Homo sapiens, UniProt P02545)
T1 construct: endogenous in cells; host or cells: HGADFN167 human HGPS fibroblasts (Progeria Research Foundation)
T1 sequence (P02545 1-614 isoform P02545-6): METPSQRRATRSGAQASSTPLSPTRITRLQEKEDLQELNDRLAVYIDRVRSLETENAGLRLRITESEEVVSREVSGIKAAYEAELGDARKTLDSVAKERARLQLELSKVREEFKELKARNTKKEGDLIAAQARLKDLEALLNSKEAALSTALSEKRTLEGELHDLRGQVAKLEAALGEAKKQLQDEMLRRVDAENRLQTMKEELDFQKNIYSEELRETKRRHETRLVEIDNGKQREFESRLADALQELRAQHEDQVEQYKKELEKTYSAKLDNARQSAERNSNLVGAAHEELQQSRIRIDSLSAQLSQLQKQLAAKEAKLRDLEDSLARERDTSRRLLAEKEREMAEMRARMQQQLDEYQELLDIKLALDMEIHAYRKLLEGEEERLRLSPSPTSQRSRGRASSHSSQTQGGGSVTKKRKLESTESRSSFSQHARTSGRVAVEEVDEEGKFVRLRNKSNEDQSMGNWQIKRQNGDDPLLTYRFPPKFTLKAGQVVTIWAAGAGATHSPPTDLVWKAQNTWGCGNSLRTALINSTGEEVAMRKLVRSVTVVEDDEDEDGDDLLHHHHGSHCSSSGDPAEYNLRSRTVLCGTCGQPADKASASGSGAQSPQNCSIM
Assay: Progerin quantification, immunoblot in human Lmna^G608G/G608G fibroblasts
Format: cell-based
Details: human Lmna^G608G/G608G patient-derived fibroblasts, vs vehicle
Source text: FIGURE 6 (A) Representative cropped immunoblots and progerin quantification in human Lmna^G608G/G608G fibroblasts. MW, molecular weight (in kDa) markers. […] (B) PROTAC 2 increases cell proliferation (upper panels) and decreases the number of misshapen nuclei (lower panels). White arrows highlight selected misshapen nuclei. (C) PROTAC 2 decreases senescence‐associated β‐galactosidase (SA‐βgal) activity, interleukin (IL) 6, p16 and p21 senescent markers. Bar graphs show mean±sem of 2 (SA‐βgal and p21) or 3 (IL‐6 and p16) independent experiments performed in triplicate. (D) PROTAC 2 decreases phosphorylated histone 2AX (pH2AX) and increases trimethylated histone 3 (H3K9Me3) levels. (E) PROTAC 2 increases the oxygen consumption rate (OCR), ATP production and the number of healthy mitochondria in human progeroid cells. […] Data were analysed using one‐way ANOVA followed by Dunnett's post–hoc test vs vehicle (panel A) or vs G608G cells (panels B‐E). ^*, p < 0.05; ^**, p < 0.01; ^***, p < 0.001; ^****, p < 0.0001. […]
was saturated at 100 ppm. Relative STD effects were calculated by comparing the intensity of the signals in the STD-NMR spectrum with signal intensities of the reference spectrum (off-resonance). The STD signal with the highest intensity was set to 100%, a nd other STD signals were calculated accordingly. […]
Cell viability was assessed as previously described.[64] […]

SMILES	progerin levels (immunoblot quantification)
CC1(C)Oc2cc3oc(=O)ccc3cc2C[C@@H]1OC(=O)CCCCCNc1cccc2c1C(=O)N(C1CCC(=O)NC1=O)C2=O (some centres unmarked) [compound 2]	the most potent in human cells
CC1(C)Oc2cc3oc(=O)ccc3cc2C[C@@H]1OC(=O)CCCCC(=O)Oc1ccc2c(c1)CCCN2C(=O)CCl [compound 12]	exhibited significant activity in human cells
